The values below come from ChEMBL document CHEMBL1129398, “Non-peptide glycoprotein IIb/IIIa antagonists. 11. Design and in vivo evaluation of 3,4-dihydro-1 (1H)-isoquinolinone-based antagonists and ethyl ester prodrugs” (J Med Chem, 1996).

Molecules are shown by their SMILES.

The test system of series [1] is Canis familiaris. In words: Effect on inhibition of the extent of ex vivo ADP-induced aggregation in canine platelet rich plasma at dose of 0.3 mg/kg po. It is filed as functional. Particulars: Canis lupus familiaris.
Series [2] is filed under the species Homo sapiens. In words: in vitro inhibition of human gel-filtered platelets using ADP agonist. The format is functional.
Series [3] relates to Canis familiaris. Description: Effect on inhibition of the extent of ex vivo ADP-induced aggregation in canine platelet rich plasma at dose of 0.5 mg/kg po. It is filed as functional. The conditions noted are these: Canis lupus familiaris.
The species entered for series [4] is Homo sapiens. In words: in vitro inhibition of human gel-filtered platelets. The format is functional.
The subject of series [5] is Canis familiaris. In words: Tmax was measured by calculating maximum time taken for ADP -induced platelet aggregation in canine platelet rich plasma at dose of 0.5 mg/kg po; Tmax hours. The format is ADME, organism-based, Canis lupus familiaris. Details: dose 0.5 mg/kg. The conditions noted are these: dog, in vivo.
The subject of series [6] is Canis familiaris. Description: Tmax was measured by calculating maximum time taken for ADP -induced plat let aggregation n canine platelet rich plasma at dose of 0.5 mg/kg po; Tmax hours. The format is ADME, organism-based, Canis lupus familiaris. Further details: dose 0.5 mg/kg. Particulars: dog, in vivo.
The test system of series [7] is Canis familiaris. In words: Effect on inhibition of the extent of ex vivo ADP-induced aggregation in canine platelet rich plasma at dose of 0.1 mg/kg po. It is filed as functional. Particulars: Canis lupus familiaris.
For series [8], the species on record is Homo sapiens. Description: In vitro inhibition of human gel-filtered platelets. The format is functional.

`C#C[C@H](CC(=O)OCC)NC(=O)CN1CCc2ccc(C3CCNCC3)cc2C1=O` gave an inhibition in vivo at 0.3 mg/kg in series [1] of 40%.
The compound `C#C[C@H](CC(=O)O)NC(=O)Cn1c(=O)[nH]c2ccc(N3CCNCC3)cc2c1=O` yielded an IC50 in series [2] of 27 nM. In series [3], this compound yielded an inhibition in vivo at 0.5 mg/kg of 0%.
In turn, `C#C[C@H](CC(=O)OCC)NC(=O)CN1CCc2ccc(N3CCNCC3)c(Cl)c2C1=O` gave an inhibition in vivo at 0.5 mg/kg in series [3] of 100%.
For `C#C[C@H](CC(=O)O)NC(=O)CN1CCc2ccc(N3CCNCC3)cc2C1=O`, the half-inhibitory concentration (IC50) in series [4] worked out at 12 nM. In addition, the inhibition in vivo at 0.3 mg/kg in series [1] came out at 80%.
In series [3], `CCOC(=O)C[C@H](NC(=O)CN1CCc2ccc(N3CCNCC3)cc2C1=O)c1cccnc1` displayed an inhibition in vivo at 0.5 mg/kg of 75%. For the same compound, the T max in series [5] is 2.5.
On to `O=C(O)C[C@H](NC(=O)CN1CCc2ccc(N3CCNCC3)cc2C1=O)c1cccnc1`, for which the IC50 in series [2] was determined as 13 nM. For the same compound, the inhibition in vivo at 0.5 mg/kg in series [3] stood at 100%. Besides, the T max in series [6] is recorded as 1.
`C[C@H](CC(=O)O)NC(=O)CN1CCc2ccc(N3CCNCC3)cc2C1=O` had an inhibition in vivo at 0.5 mg/kg in series [3] of 100%. In addition, in series [4], the half-inhibitory concentration (IC50) was 30 nM.
Turning to `C#C[C@H](CC(=O)O)NC(=O)CN1CCc2ccc(N3CCNCC3)c(Cl)c2C1=O`, in series [4], the IC50 was determined as 35 nM.
As for `N[C@@H](CNC(=O)CN1CCc2ccc(N3CCNCC3)cc2C1=O)C(=O)O`, in series [4], the 50% inhibitory concentration (IC50) turned out to be 630 nM. Compared with the last compound, the IC50 is about 18-fold higher.
Consider `C#C[C@H](CC(=O)O)NC(=O)CN1CCc2cc(Cl)c(N3CCNCC3)cc2C1=O`, for which, in series [3], testing at 0.5 mg/kg gave an inhibition in vivo of 80%. This compound registered an IC50 in series [4] of 19 nM.
On to `C#C[C@H](CC(=O)O)NC(=O)Cn1ccc2ccc(N3CCNCC3)cc2c1=O`, for which the IC50 in series [2] is 81 nM.
`C#C[C@H](CC(=O)O)NC(=O)CN1CCc2ccc(C3CCNCC3)cc2C1=O`: the half-inhibitory concentration (IC50) in series [4] turned out to be 6 nM. In series [1], this compound registered an inhibition in vivo at 0.3 mg/kg of 100%.
With `O=C(O)C[C@@H](CCc1ccccc1)NC(=O)CN1CCc2ccc(N3CCNCC3)cc2C1=O`, the inhibition in vivo at 0.5 mg/kg in series [3] amounted to 20%. In series [4], the IC50 was 16 nM.
On to `C#C[C@H](CC(=O)O)NC(=O)CN1CCc2cc(F)c(N3CCNCC3)cc2C1=O`, for which the inhibition in vivo at 0.5 mg/kg in series [3] was found to be 95%. The same compound returned a 50% inhibitory concentration (IC50) in series [4] of 15 nM.
`C#C[C@H](CC(=O)OCC)NC(=O)Cn1c(=O)[nH]c2ccc(N3CCNCC3)cc2c1=O` returned an inhibition in vivo at 0.1 mg/kg in series [7] of 0%.
In turn, `C#C[C@H](CC(=O)O)NC(=O)CN1CCc2ccc(N3CCNCC3)cc2C1` came in with an IC50 in series [4] of 320 nM.
Consider `O=C(O)C[C@H](NC(=O)CN1CCc2ccc(N3CCOCC3)cc2C1=O)c1cccnc1`, for which the IC50 in series [2] is more than 300000 nM.
On to `C#C[C@H](CC(=O)OCC)NC(=O)CN1CCc2cc(F)c(N3CCNCC3)cc2C1=O`, for which 0.3 mg/kg produced 100% inhibition in vivo in series [1].
As to `C#C[C@H](CC(=O)O)NC(=O)Cn1cnc2ccc(N3CCNCC3)cc2c1=O`, the IC50 in series [2] was found to be 330 nM. This counts as sub-micromolar.
For the compound `O=C(O)C[C@H](NC(=O)CN1CCc2ccc(N3CCNCC3)cc2C1=O)c1ccc[n+]([O-])c1`, in series [4], the IC50 came out at 18 nM.
The compound `O=C(O)CCNC(=O)CN1CCc2ccc(N3CCNCC3)cc2C1=O` returned an IC50 in series [8] of 140 nM.
Compound `C#C[C@H](CC(=O)O)NC(=O)CN1CCc2ccc(-c3ccncc3)cc2C1=O` displayed a 50% inhibitory concentration (IC50) in series [2] of 160 nM.

Broadly, the inhibition in vivo is how much of the control response was suppressed. For orientation: IC50 means the concentration that inhibits the measured activity by half. Lower therefore signals greater potency.
